Assay results taken from PubChem BioAssay AID1996.
Converted amounts (≈) assume the structure as drawn.

conditions: buffer; pH 7.4; 200.0 µM

| SMILES | solubility kinetic [µg/mL] |
| --- | --- |
| N/C(Cc1ccc([N+](=O)[O-])cc1)=N\OC(=O)c1ccco1 | 18 (≈ 62.2 µM) |
| COc1ccc(Nc2nc(N)c([N+](=O)[O-])c(N3CCOCC3)n2)cc1 | 21.2 (≈ 61.2 µM) |
| COC(=O)CCC(=O)NC(=S)Nc1ccccc1F | 36.8 (≈ 129 µM) |
| CN1CCc2c(sc(/N=C/c3cc(C(C)(C)C)ccc3O)c2C#N)C1 | 3.4 (≈ 9.62 µM) |
| CC(=O)N1CCN(c2ccc(S(C)(=O)=O)cc2[N+](=O)[O-])CC1 | > 49.1 |
| Nc1nc(NCCOCCO)nc(NCC2CCCO2)c1[N+](=O)[O-] (centres undefined) | > 51.4 |
| CCOc1ccc(NC(=O)COC(=O)Cn2cnc3ccccc32)cc1 | 19.9 (≈ 56.3 µM) |
| O=[N+]([O-])c1ccccc1COc1ccc(Cl)c2cccnc12 | < 0.3 |
| Cc1ccc(/C=C(\NC(=O)c2ccccc2)C(=O)N2CCCCC2)cc1 | 39.9 (≈ 115 µM) |
| Cc1ccc(NC(=S)NC(=O)Cc2ccccc2)c(O)c1 | 3.3 (≈ 11 µM) |
| C[C@H](N)c1nnc(SCC(N)=O)o1.Cl | > 35.8 |
| COc1ccc(CC(=O)Nc2ccc(S(=O)(=O)N3CCCC3)cc2)cc1OC | > 60.7 |
| COc1ccc(NC(=S)NC(C)c2ccncc2)cc1OC (centres undefined) | 46.7 (≈ 147 µM) |
| O=C(NC12CC3CC(CC(C3)C1)C2)N(Cc1ccccc1)Cc1ccncc1 | 6.2 (≈ 16.5 µM) |
| Cc1cccc(NC(=S)NC(=O)C2CC2)c1 | > 35.1 |
| Cc1nc2ccc(NC(=O)c3cccc(S(=O)(=O)N4CCOCC4)c3)cc2s1 | 6.2 (≈ 14.8 µM) |
| CSc1nsc(NC(=O)OCc2ccc(Cl)cc2)n1 | 8.4 (≈ 26.6 µM) |
| Cc1ccc(C(=O)NCCNC(=O)c2cnccn2)cc1 | 34.9 (≈ 123 µM) |
| O=C(CN1C(=O)C2CCCCC2C1=O)OCC(=O)c1ccc(F)cc1 (centres undefined) | 49.5 (≈ 143 µM) |
| CC(NC(=O)c1ccccc1)C(=O)N/N=C/c1ccco1 (centres undefined) | > 42.8 |
| COc1cccc(NC(=O)COC(=O)Cc2ccc(Cl)cc2)c1 | > 50.1 |
| CCn1c(SCC(=O)Nc2ccccc2OC)nc(O)cc1=O | 47.7 (≈ 142 µM) |
| Cc1cc(NC(=O)COc2ccccc2C#N)no1 | 11.2 (≈ 43.5 µM) |
| COc1ccccc1/C=C1\N=C(C(C)(C)C)OC1=O | 3 (≈ 11.6 µM) |

| SMILES | solubility kinetic [µg/mL] |
| --- | --- |
| COc1ccc(C(=O)NCC(=O)OCCOc2ccc(Cl)cc2)cc1OC | 13.6 (≈ 34.5 µM) |
| CC(=O)Nc1ccc(S(=O)(=O)N[C@@H](C)C(=O)NC2CCCc3ccccc32)cc1 (some centres undefined) | 30.3 (≈ 72.9 µM) |
| CC(=O)C1=C(C)NC(=O)NC1c1ccc2c(c1)OCO2 (centres undefined) | > 41.1 |
| Cn1c(N)c(C(=O)COC(=O)C2CCCN2C(=O)c2cccs2)c(=O)n(C)c1=O (centres undefined) | 56.8 (≈ 135 µM) |
| C[C@H](NC(=O)c1ccccc1Cl)C(=O)Nc1ccccc1F | > 48.1 |
| Cc1ccc(Cl)cc1NC(=O)NCc1cccnc1 | 18.5 (≈ 67.1 µM) |
| CCC(C)c1c(O)nc(SCC(=O)N2CCCCC2)[nH]c1=O (centres undefined) | > 48.8 |
| CC1CCCC(NC(=O)C2CC(=O)N(Cc3ccccc3)C2)C1C (centres undefined) | 37.4 (≈ 114 µM) |
| CC(C)N(Cc1ccccc1)C(=O)COC(=O)c1cc(S(=O)(=O)N(C)C)ccc1N1CCCC1 | 7.5 (≈ 15.4 µM) |
| CC1=CC(C)(C)Nc2ccc(OC(=O)CN3C(=O)c4cccc5cccc(c45)C3=O)cc21 | 56.3 (≈ 132 µM) |
| CC(NC(=O)CN1CCCC1)c1ccccc1 (centres undefined) | > 34.8 |
| CCOC(=O)N1CCN(C(=O)c2ccc(OCC)cc2)CC1 | > 46 |
| CC(C)(C)S(=O)(=O)/C(C#N)=C/c1sccc1C1OCCO1 | 35.4 (≈ 108 µM) |
| N#C/C(=C\c1cccnc1)C(=O)Nc1ccc(Cl)cc1 | 5.7 (≈ 20.1 µM) |
| Cc1cccc(Nc2nc(-c3ccc(F)cc3)cs2)n1 | < 0.2 |
| Cc1ccc(C(=O)c2ccccc2C(=O)OCC(=O)N2CCCC2)cc1 | > 52.7 |
| COc1ccccc1NC(=O)C[n+]1ccccc1C.[Cl-] | 41 |
| O=[N+]([O-])c1ccc2c(c1)c1ccccc1n2CCO | 6.2 (≈ 24.2 µM) |
| O=C(Nc1nc2ccsc2c(=O)s1)c1ccc(Cl)cc1 | < 0.3 |
| O=C(CSc1ccc(-c2cccnc2)nn1)N1CCCCC1 | > 47.2 |
| NC1=NC(c2ccc(Cl)cc2)C(C(=O)c2ccccc2)N1 (centres undefined) | 4.9 (≈ 16.3 µM) |
| CCn1c(SCCN2CCOCC2)nc2c1c(=O)n(C)c(=O)n2C | > 53 |
| Cc1ccc(NC(=O)c2cnccn2)c(C)c1 | 32.7 (≈ 144 µM) |
| CCN(Cc1ccncc1)C(=O)c1ccc(Br)o1 | > 46.4 |

| SMILES | solubility kinetic [µg/mL] |
| --- | --- |
| COC(=O)c1c(C(=O)OC)c2n(c1C)CCS2 | > 38.3 |
| O=C1CSC(c2ccc(F)cc2)N1c1ccccc1F (centres undefined) | 36.8 (≈ 126 µM) |
| OCCN1CCN(c2ncnc3sc4c(c23)CCCC4)CC1 | > 47.8 |
| COc1ccccc1C(=O)Nc1ccc(Br)cc1C | < 0.7 |
| Cc1cccc(NC(=O)COC(=O)c2ccc([N+](=O)[O-])o2)c1C | 17.2 (≈ 54 µM) |
| CCCCN(C(=O)C1CCCO1)c1c(N)n(CCC)c(=O)[nH]c1=O (centres undefined) | > 50.8 |
| COc1ccc(NS(=O)(=O)c2ccc(N3CCCCC3)c(NC(=O)C(C)NC(N)=O)c2)cc1 (centres undefined) | > 71.3 |
| O=C(O)CSCC(=O)NCc1csc2ccc(Cl)cc12 | 37.9 (≈ 115 µM) |
| COc1ccc(Nc2nc(C)cc(C)c2C(N)=O)cc1OC | 43.8 (≈ 145 µM) |
| CCCCC(=O)Nc1cnc(NC(=O)c2ccco2)cc1C | > 45.2 |
| CC(C)Oc1ccccc1Cn1c(=O)oc2ccccc21 | 9 (≈ 31.8 µM) |
| CCCCOc1ccc(C(=O)OCC(=O)NC2CCCC2)cc1 | 5.5 (≈ 17.2 µM) |
| O=C1NC(=S)N/C1=C/c1cccnc1 | > 30.8 |
| COc1cccc(C(=O)NC2CC(C)(C)NC(C)(C)C2)c1OC | > 48.1 |
| CC(C)(C)CC(=O)Nc1ccc(-c2cn3cccnc3n2)cc1 | 40.3 (≈ 131 µM) |
| Cn1c(=O)n(C)c2cc(NC(=O)c3ccc(F)cc3)ccc21 | 15.5 (≈ 51.8 µM) |
| Cn1cccc1C(=O)OCC(=O)Nc1sccc1C#N | 4.2 (≈ 14.5 µM) |
| Clc1ccc(N2CCN(c3ccnc(Cl)n3)CC2)cc1 | 2.3 (≈ 7.44 µM) |
| Fc1ccccc1N1CCN(CC2CCCCC2)CC1 | 6.2 (≈ 22.4 µM) |
| COc1ccc(NC(=S)N2c3ccccc3CC2C)cc1OC (centres undefined) | 42.4 (≈ 129 µM) |
| O=C(CSc1ncccn1)Nc1cc(Cl)ccc1[N+](=O)[O-] | 4.7 (≈ 14.5 µM) |
| CN(C(=O)c1ccc(N2CCOCC2)c([N+](=O)[O-])c1)C1CCCCC1 | > 52.1 |
| NC(=O)CC(c1ccccc1)c1ccc2c(c1)OCO2 (centres undefined) | 39.9 (≈ 148 µM) |
| C=CCOc1nc2sc(C)c(C)c2c(=O)n1-c1ccccc1 | 46.1 (≈ 148 µM) |

| SMILES | solubility kinetic [µg/mL] |
| --- | --- |
| Cc1cccc(C)c1OCCNC(=O)OCc1ccccc1 | 15.8 (≈ 52.8 µM) |
| Cc1ccc(CN2CCN(C3CCC3)CC2CCO)cc1 (centres undefined) | 42.4 (≈ 147 µM) |
| Cc1[nH]c(=O)c(C#N)c(C)c1CCC(=O)NCc1ccc(Cl)cc1 | > 51.6 |
| O=Cc1cccn1-c1nccc(-c2ccco2)n1 | 24.7 (≈ 103 µM) |
| C/C=C/C=C/C(=O)OCC(=O)Nc1ccc(Cl)cc1 | 6.2 (≈ 22.2 µM) |
| O=C(CNC(=O)c1ccco1)Nc1cccc(Cl)c1 | 18.9 (≈ 67.8 µM) |
| CN(c1cccc(NC(=O)c2cccc([N+](=O)[O-])c2)c1)S(C)(=O)=O | > 52.4 |
| COc1ccc2c(COC(=O)[C@H](C)NS(=O)(=O)c3ccccc3F)cc(=O)oc2c1 | 59.1 (≈ 136 µM) |
| O=C(CSCc1ccccc1Br)Nc1ccccc1 | 29.5 (≈ 87.7 µM) |
| COc1cc(OC)c(C(=O)Nc2cccc3ccccc23)cc1OC | < 0.7 |
| Cc1nc(CNS(=O)(=O)c2ccc(F)cc2)cs1 | > 43 |
| Cc1cccc(C(=O)N[C@H](C(=O)NCc2cccs2)C(C)C)c1 | 7.5 (≈ 22.7 µM) |
| CCN1C(=O)CCCc2ccccc21 | > 28.4 |
| CCN(CC)CCn1c(NC(=O)c2ccccc2O)nc2ccccc21 | 18.5 (≈ 52.5 µM) |
| Cc1cc(Nc2ccc(N3CCOCC3)cc2)c2cccc(C)c2n1.Cl | 55 |
| COc1ccc2sc(NCc3ccccc3)nc2c1 | 2 (≈ 7.4 µM) |
| CNC(=O)c1ncoc1-c1ccc(Cl)cc1 | 33.8 (≈ 143 µM) |
| N#Cc1ccc(OCC(=O)Nc2ccc3[nH]c(=O)[nH]c3c2)cc1 | 7.3 (≈ 23.7 µM) |
| Cc1nn2c(nc1=O)NNC2(C)C(C)(C)C (centres undefined) | > 33.5 |
| Cc1cc(C)cc(C(=O)N2CCN(Cc3ccc4c(c3)OCO4)CC2)c1 | > 52.9 |
| CCCS(=O)(=O)N1CCC(C(=O)NCCC(C)C)CC1 | > 45.7 |
| CC(O)Cn1c(N2CCCC2)nc2c1c(=O)[nH]c(=O)n2C (centres undefined) | 41.4 (≈ 141 µM) |
| O=C(COC(=O)c1ccc(F)cc1F)c1ccc[nH]1 | > 39.8 |
| O=C(Nc1ccc(S(=O)(=O)NC2=NCCCCC2)cc1)c1ccc(Cl)c([N+](=O)[O-])c1 | 22 (≈ 48.8 µM) |

| SMILES | solubility kinetic [µg/mL] |
| --- | --- |
| CCC(C)NC(=O)CN1C(=O)NC2(CCc3ccccc3C2)C1=O (centres undefined) | > 49.4 |
| Cn1c(N2CCOCC2)cc(=O)n(C)c1=O | 29.3 (≈ 130 µM) |
| COc1cccc(N2C(=O)C3CCCN3C2=S)c1 (centres undefined) | > 39.3 |
| COc1c(O)cccc1/C=N/NC(=O)Cn1ccnc1C | > 43.2 |
| O=C(O)C1CCCCC1C(=O)NCCCN1CCCC1=O (centres undefined) | 41.4 (≈ 140 µM) |
| Cc1cccc(CC(=O)NCC2CCCCC2)c1 | > 36.8 |
| O=C(CS(=O)(=O)Cc1ccccc1)NCc1ccccc1Cl | > 50.7 |
| Cc1c(-n2cccc2C=O)cccc1[N+](=O)[O-] | > 34.5 |
| Cc1nc(CN(C)Cc2nc(Cc3cccc(F)c3)no2)cs1 | > 49.9 |
| O=C(N/N=C/c1ccccn1)C(O)c1ccccc1 (centres undefined) | > 38.3 |
| O=Cc1ccc(C(=O)OCC(=O)N2CCCC2)cc1 | 36.3 (≈ 139 µM) |
| Cc1cc([N+](=O)[O-])ccc1NC(=S)NC1CCCC1 | 21.9 (≈ 78.4 µM) |
| Cc1ccc(NC(=O)C2CCC(N3C(=O)C4CCCCC4C3=O)CC2)cc1 (centres undefined) | 52.2 (≈ 142 µM) |
| CN1C2CCC1CC(NS(=O)(=O)c1cccc(C(F)(F)F)c1)C2 (centres undefined) | 48.3 (≈ 139 µM) |
| O=C(Nc1ccccc1)c1ccco1 | > 28.1 |
| Cc1cnc(C(=O)OCC(=O)N2CCC(C)CC2)cn1 | > 41.6 |
| Cc1ccc(CNC(=O)Nc2ccccc2)n1C | 31.6 (≈ 130 µM) |
| CN(C)Cc1c(O)ccc2c(=O)c(-c3ccc(Cl)cc3)coc12 | > 49.5 |
| Cc1cccc(CC(=O)NC2CCN(C)CC2)c1 | > 37 |
| C/C=C/COC(=O)C1=C(C)NC(=O)NC1c1ccc2c(c1)OCO2 (centres undefined) | 15.5 (≈ 46.9 µM) |
| Cc1sc2ncnc(SCC(=O)N3CCCCC3)c2c1C | 5.5 (≈ 17.1 µM) |
| Cc1onc(-c2c(Cl)cccc2Cl)c1C(O)c1ccc(F)cc1 (centres undefined) | 42.1 (≈ 120 µM) |
| COc1ccc(OC)c(-c2cc(-c3cccnc3)nc(N)c2C#N)c1 | 1.7 (≈ 5.11 µM) |
